Results published in patent US20220127247A1, “N-(PYRIDIN-2-YL)PYRIDINE-SULFONAMIDE DERIVATIVES AND THEIR USE IN THE TREATMENT OF DISEASE” (NOVARTIS AG, priority 2019, published 2022).

Target: T1, delF508-CFTR (Homo sapiens, UniProt P13569, DEL508-508)
T1 construct: expressed in transfected cells
Assay: Measurement of delF508-CFTR-HRP surface expression in CFBE41o- cells
Type: cell-based
Details: for EC50: HRP-tagged delF508-CFTR in CFBE41o- cells, 24 h with compound, luminescence, 10-point curve, top 10 μM; for Emax: efficacy relative to reference compound 3-(6-(1-(2,2-difluorobenzo[d][1,3]dioxol-5-yl)cyclopropane-1-carboxamido)-3-methylpyridin-2-yl)benzoic acid, CFBE41o- cells, 24 h, read-out: DelF508-CFTR-HRP Amax %
Excerpt: Measurement of delF508-CFTR-HRP Surface Expression in CFBE41o-Cells
This assay quantifies the cell surface expressions of the mutant CFTR channel using an extracellular HRP tag.
A cellular assay was developed to measure surface expression of horseradish peroxidase (HRP) tagged delF508-CFTR in the human bronchial epithelial immortalized CFBE41o-cell line (Phuan, P. W., et al, (2014) Molecular Pharmacology 86:42-51). Specifically, the HRP sequence was inserted into the fourth extracellular loop of delF508-CFTR and stably expressed in CFBE41o-cells. Cells were seeded in 384 well plate at a density of 5000 cells/well and incubated at 37° C. for 12 to 24 hours in medium (Gibco MEM #11095, 10% FBS, 10 mM HEPES, […], 200 μg/mL G418, 3 μg/mL Puromycin). The delF508-CFTR-HRP expression was induced with 500 ng/mL doxycycline (Sigma D-9891, dissolved in H2O and sterile filtered) in medium and the cells were incubated at 37° C. for 48 h. Old medium was removed and fresh medium was added containing 500 ng/mL doxycycline and unknown test compound at required test concentration in DMSO, not exceeding 0.5% final DMSO concentration. The highest concentration tested was 10 μM with a 10-point concentration response curve using a 3-fold dilution. After addition of compounds, the cells were incubated for 24 h at 37° C. On the final day, cells were washed four times in PBS containing 1 mM MgCl2 and 0.1 mM CaCl2. HRP-Substrate (SuperSignal ELISA Pico, Fisher #37069) 20 μl/well was added and the luminescence signal was determined (Viewlux, Perkin Elmer). Light was emitted upon addition of exogenous HRP-Substrate only when delF508-CFTR-HRP reached the cell surface and the HRP tag was accessible to the HRP-Substrate (note: HRP-Substrate cannot cross the lipid bilayer to reach delF508-CFTR-HRP misfolded within the cell).
The median activity for the lowest concentration of the compounds on each assay plate was calculated and this value was used to normalize the signal for each well on the respective plate. Three replicates at each concentrations for every compound were run to determine one EC50. The median value was determined and used to calculate compound activities as described below. Effective half maximal values (EC50) were calculated for each compound by performing logistic regression on measured dose-response data points using the equation: […]
where “Y” is the observed activity, “Bottom” is the lowest observed value, “Top” is the highest observed value, and the “Hill coefficient” gives the largest absolute value of the slope. The curve fitting is carried out by a curve fitting program implemented at GNF using Matlab (Mathworks).
The dose response curves also were used to calculate Fold Change (FC) using the equation: […]
Compound efficacy relative to the reference compound 3-(6-(1-(2,2-difluorobenzo[d][1,3]dioxol-5-yl)cyclopropane-1-carboxamido)-3-methylpyridin-2-yl)benzoic acid was determined using the following formula: […]

T1 sequence (P13569 with tags, fused parts or gaps DEL508-508): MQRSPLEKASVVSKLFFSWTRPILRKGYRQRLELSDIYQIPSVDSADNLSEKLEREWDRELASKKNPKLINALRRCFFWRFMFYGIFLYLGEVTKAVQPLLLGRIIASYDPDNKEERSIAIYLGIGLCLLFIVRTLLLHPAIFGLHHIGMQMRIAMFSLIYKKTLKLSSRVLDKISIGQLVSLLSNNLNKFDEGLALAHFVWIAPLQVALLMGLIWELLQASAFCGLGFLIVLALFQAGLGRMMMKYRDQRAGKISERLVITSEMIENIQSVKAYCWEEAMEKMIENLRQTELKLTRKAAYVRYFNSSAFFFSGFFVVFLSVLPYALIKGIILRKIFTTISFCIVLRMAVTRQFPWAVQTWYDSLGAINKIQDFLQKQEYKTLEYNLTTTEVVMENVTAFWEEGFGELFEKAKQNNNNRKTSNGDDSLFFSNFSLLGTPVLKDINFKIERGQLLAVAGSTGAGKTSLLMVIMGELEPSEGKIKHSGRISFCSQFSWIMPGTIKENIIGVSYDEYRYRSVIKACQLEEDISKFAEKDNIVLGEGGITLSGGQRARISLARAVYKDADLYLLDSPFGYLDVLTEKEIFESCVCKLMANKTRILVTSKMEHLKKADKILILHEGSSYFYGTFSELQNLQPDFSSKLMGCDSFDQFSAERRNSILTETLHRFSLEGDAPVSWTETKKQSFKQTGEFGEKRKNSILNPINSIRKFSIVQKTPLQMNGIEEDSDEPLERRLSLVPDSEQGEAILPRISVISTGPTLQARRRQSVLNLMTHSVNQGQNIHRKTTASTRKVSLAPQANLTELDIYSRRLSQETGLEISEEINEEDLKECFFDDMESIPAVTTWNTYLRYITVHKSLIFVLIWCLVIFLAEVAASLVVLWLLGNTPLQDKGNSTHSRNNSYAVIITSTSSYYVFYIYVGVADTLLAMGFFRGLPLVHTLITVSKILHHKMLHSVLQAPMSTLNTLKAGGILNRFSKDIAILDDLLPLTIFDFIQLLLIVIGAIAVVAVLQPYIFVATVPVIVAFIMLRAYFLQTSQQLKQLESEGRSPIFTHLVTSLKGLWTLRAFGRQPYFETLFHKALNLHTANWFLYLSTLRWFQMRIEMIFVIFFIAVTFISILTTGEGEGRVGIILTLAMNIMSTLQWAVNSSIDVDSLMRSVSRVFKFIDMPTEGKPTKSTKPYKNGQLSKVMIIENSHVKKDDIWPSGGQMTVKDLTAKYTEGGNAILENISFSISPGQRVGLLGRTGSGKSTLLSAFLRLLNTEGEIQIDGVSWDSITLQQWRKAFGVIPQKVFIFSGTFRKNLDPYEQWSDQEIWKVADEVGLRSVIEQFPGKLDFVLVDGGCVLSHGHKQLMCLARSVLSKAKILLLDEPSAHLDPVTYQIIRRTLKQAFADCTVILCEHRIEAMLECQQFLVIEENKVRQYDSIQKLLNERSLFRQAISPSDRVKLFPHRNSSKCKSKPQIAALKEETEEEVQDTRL

O=C(O)CC1CCN(c2cccc(S(=O)(=O)Nc3ccc(C(F)(F)F)c(-c4ccccc4C4CCC4)n3)n2)CC1 [Compound 17, 2-(1-(6-(N-(6-(2-cyclobutylphenyl)-5-(trifluoromethyl)pyridin-2-yl)sulfamoyl)pyridin-2-yl)piperidin-4-yl)acetic Acid]
EC50: 1460 nM | Emax: 369%

CC1(C(=O)O)CCN(c2cccc(S(=O)(=O)Nc3ccc(C(F)(F)F)c(-c4ccccc4-c4ncccn4)n3)n2)CC1 [Compound 18, 4-methyl-1-(6-(N-(6-(2-(pyrimidin-2-yl)phenyl)-5-(trifluoromethyl)pyridin-2-yl)sulfamoyl)pyridin-2-yl)piperidine-4-carboxylic Acid]
EC50: 2390 nM | Emax: 97%

CC1(C(=O)O)CCN(c2cccc(S(=O)(=O)Nc3ccc(Cl)c(-c4ccccc4-c4ccccc4)n3)n2)CC1 [Compound 19, 1-(6-(N-(6-([1,1′-biphenyl]-2-yl)-5-chloropyridin-2-yl)sulfamoyl)pyridin-2-yl)-4-methylpiperidine-4-carboxylic Acid]
EC50: 2240 nM | Emax: 378%

CC1(C(=O)O)CCN(c2cccc(S(=O)(=O)Nc3ccc(C(F)(F)F)c(-c4ccccc4-c4ccccc4)n3)n2)CC1 [Compound 20, 1-(6-(N-(6-([1,1′-biphenyl]-2-yl)-5-(trifluoromethyl)pyridin-2-yl)sulfamoyl)pyridin-2-yl)-4-methylpiperidine-4-carboxylic Acid]
EC50: 800 nM | Emax: 973%

COc1ccc(Cl)c(-c2nc(NS(=O)(=O)c3cccc(N4CCN(c5ccc(C(=O)O)cc5)CC4)n3)ccc2C(F)(F)F)c1 [Compound 21, 4-(4-(6-(N-(6-(2-chloro-5-methoxyphenyl)-5-(trifluoromethyl)pyridin-2-yl)sulfamoyl)pyridin-2-yl)piperazin-1-yl)benzoic Acid]
EC50: 2930 nM | Emax: 361%

CCc1ccccc1-c1nc(NS(=O)(=O)c2cccc(N3CCC(C)(CC(=O)O)CC3)n2)ccc1C(F)(F)F [Compound 22, 2-(1-(6-(N-(6-(2-ethylphenyl)-5-(trifluoromethyl)pyridin-2-yl)sulfamoyl)pyridin-2-yl)-4-methylpiperidin-4-yl)acetic Acid]
EC50: 1060 nM | Emax: 485%

CC1(CC(=O)O)CCN(c2cccc(S(=O)(=O)Nc3ccc(C(F)(F)F)c(-c4ccccc4-c4ccccc4)n3)n2)CC1 [Compound 23, 2-(1-(6-(N-(6-([1,1′-biphenyl]-2-yl)-5-(trifluoromethyl)pyridin-2-yl)sulfamoyl)pyridin-2-yl)-4-methylpiperidin-4-yl)acetic acid]
EC50: 1260 nM

CC1(CC(=O)O)CCN(c2cccc(S(=O)(=O)Nc3ccc(C(F)(F)F)c(-c4ccccc4C4CCC4)n3)n2)CC1 [Compound 24, 2-(1-(6-(N-(6-(2-cyclobutylphenyl)-5-(trifluoromethyl)pyridin-2-yl)sulfamoyl)pyridin-2-yl)-4-methylpiperidin-4-yl)acetic Acid]
EC50: 1310 nM | Emax: 909%

CC(C)c1ccccc1-c1nc(NS(=O)(=O)c2cccc(N3CCC(C)(CC(=O)O)CC3)n2)ccc1C(F)(F)F [Compound 25, 2-(1-(6-(N-(6-(2-isopropylphenyl)-5-(trifluoromethyl)pyridin-2-yl)sulfamoyl)pyridin-2-yl)-4-methylpiperidin-4-yl)acetic Acid]
EC50: 1000 nM | Emax: 780%

CC1(CC(=O)O)CCN(c2cccc(S(=O)(=O)Nc3ccc(C(F)(F)F)c(-c4ccccc4C(C)(C)C)n3)n2)CC1 [Compound 26, 2-(1-(6-(N-(6-(2-(tert-butyl)phenyl)-5-(trifluoromethyl)pyridin-2-yl)sulfamoyl)pyridin-2-yl)-4-methylpiperidin-4-yl)acetic Acid]
EC50: 830 nM | Emax: 829%

CC1(C(=O)O)CCN(c2cccc(S(=O)(=O)Nc3ccc(C(F)(F)F)c(-c4ccccc4-c4ccncc4)n3)n2)CC1 [Compound 27, 4-methyl-1-(6-(N-(6-(2-(pyridin-4-yl)phenyl)-5-(trifluoromethyl)pyridin-2-yl)sulfamoyl)pyridin-2-yl)piperidine-4-carboxylic Acid]
EC50: 2070 nM | Emax: 189%

CC1(C(=O)O)CCN(c2cccc(S(=O)(=O)Nc3ccc(C(F)(F)F)c(-c4ccccc4Oc4ccccc4)n3)n2)CC1 [Compound 28, 4-methyl-1-(6-(N-(6-(2-phenoxyphenyl)-5-(trifluoromethyl)pyridin-2-yl)sulfamoyl)pyridin-2-yl)piperidine-4-carboxylic Acid]
EC50: 1450 nM | Emax: 442%

CC1(C(=O)O)CCCN(c2cccc(S(=O)(=O)Nc3ccc(Cl)c(-c4ccccc4-c4ccccc4)n3)n2)C1 (stereo not shown) [Compound 29, 1-(6-(N-(6-([1,1′-biphenyl]-2-yl)-5-chloropyridin-2-yl)sulfamoyl)pyridin-2-yl)-3-methylpiperidine-3-carboxylic Acid]
EC50: 1300 nM | Emax: 969%

CC(C)c1ccncc1-c1nc(NS(=O)(=O)c2cccc(N3CCCC(C)(C(=O)O)C3)n2)ccc1C(F)(F)F (stereo not shown) [Compound 30, 1-(6-(N-(4′-isopropyl-3-(trifluoromethyl)-[2,3′-bipyridin]-6-yl)sulfamoyl)pyridin-2-yl)-3-methylpiperidine-3-carboxylic Acid]
EC50: 2220 nM | Emax: 303%

CC(C)c1ccccc1-c1nc(NS(=O)(=O)c2cccc(N3CCC(OCC(=O)O)CC3)n2)ccc1C(F)(F)F [Compound 31, 2-((1-(6-(N-(6-(2-isopropylphenyl)-5-(trifluoromethyl)pyridin-2-yl)sulfamoyl)pyridin-2-yl)piperidin-4-yl)nxy)acetic Acid]
EC50: 2140 nM | Emax: 443%

Cc1ccccc1-c1nc(NS(=O)(=O)c2cccc(N3CCC(CC(=O)O)C3)n2)ccc1C(F)(F)F (stereo not shown) [Compound 32, 2-(1-(6-(N-(6-(o-tolyl)-5-(trifluoromethyl)pyridin-2-yl)sulfamoyl)pyridin-2-yl)pyrrolidin-3-yl)acetic Acid]
EC50: 1800 nM | Emax: 372%

O=C(O)CC1CCN(c2cccc(S(=O)(=O)Nc3ccc(C(F)(F)F)c(-c4ccccc4C4CC4)n3)n2)C1 (stereo not shown) [Compound 33, 2-(1-(6-(N-(6-(2-cyclopropylphenyl)-5-(trifluoromethyl)pyridin-2-yl)sulfamoyl)pyridin-2-yl)pyrrolidin-3-yl)acetic Acid]
EC50: 1280 nM | Emax: 320%

Cc1ccccc1-c1nc(NS(=O)(=O)c2cccc(N(C)CCC(=O)O)n2)ccc1C(F)(F)F [Compound 34, 3-(methyl(6-(N-(6-(o-tolyl)-5-(trifluoromethyl)pyridin-2-yl)sulfamoyl)pyridin-2-yl)amino)propanoic Acid]
EC50: 2580 nM | Emax: 785%

Cc1ccccc1-c1nc(NS(=O)(=O)c2cccc(NCCC(=O)O)n2)ccc1C(F)(F)F [Compound 35, 3-((6-(N-(6-(o-tolyl)-5-(trifluoromethyl)pyridin-2-yl)sulfamoyl)pyridin-2-yl)amino)propanoic acid]
EC50: 2600 nM | Emax: 209%

Cc1ccccc1-c1nc(NS(=O)(=O)c2cccc(NCCCC(=O)O)n2)ccc1C(F)(F)F [Compound 36, 4-((6-(N-(6-(o-tolyl)-5-(trifluoromethyl)pyridin-2-yl)sulfamoyl)pyridin-2-yl)amino)butanoic Acid]
EC50: 2960 nM | Emax: 222%

Cc1ccccc1-c1nc(NS(=O)(=O)c2cccc(N(C)CCCC(=O)O)n2)ccc1C(F)(F)F [Compound 37, 4-(methyl(6-(N-(6-(o-tolyl)-5-(trifluoromethyl)pyridin-2-yl)sulfamoyl)pyridin-2-yl)amino)butanoic Acid]
EC50: 2050 nM | Emax: 982%

CN(CCC(=O)O)c1cccc(S(=O)(=O)Nc2ccc(C(F)(F)F)c(-c3ccccc3C3CC3)n2)n1 [Compound 38, 3-((6-(N-(6-(2-cyclopropylphenyl)-5-(trifluoromethyl)pyridin-2-yl)sulfamoyl)pyridin-2-yl)(methyl)amino)propanoic Acid]
EC50: 1700 nM | Emax: 742%
